Assay [1] is filed under the species Homo sapiens. The following applies: 10 uM.
Description: Inhibition of RPA (unknown origin) at 10 uM by EMSA assay
In assay [2] the test system is Salmonidae. The experiment in a line: Binding affinity to salmon sperm DNA assessed as DNA intercalation by SYBR-green dye based fluorescence assay.
Assay [3] has as its target DNA repair protein complementing XP-A cells (Homo sapiens, UniProt P23025). The experiment in a line: Inhibition of full length human XPA expressed in Sf9 cells assessed as reduction in interaction of XPA with 32P-labeled cisplatin-modified dsDNA by EMSA. (In EMSA bound probe runs differently from free probe, usually more slowly.)

Active and inactive are the calls of the source. No cut-off for these calls is given here.

These results are taken from ChEMBL document CHEMBL4017531, “Design and Structure-Guided Development of Novel Inhibitors of the Xeroderma Pigmentosum Group A (XPA) Protein-DNA Interaction” (J Med Chem, 2017).

Chain of DNA repair protein complementing XP-A cells (P23025 whole entry): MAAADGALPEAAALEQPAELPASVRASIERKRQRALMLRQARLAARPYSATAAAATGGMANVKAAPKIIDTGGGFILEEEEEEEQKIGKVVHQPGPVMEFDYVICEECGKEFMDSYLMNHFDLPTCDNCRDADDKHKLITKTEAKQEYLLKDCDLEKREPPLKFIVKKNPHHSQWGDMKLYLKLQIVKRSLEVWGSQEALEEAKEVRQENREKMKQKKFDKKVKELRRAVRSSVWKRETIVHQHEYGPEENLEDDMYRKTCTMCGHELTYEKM

As to `CC1=NN(c2ccc(Cl)c(C(=O)O)c2)C(=O)/C1=C\c1ccc(-c2ccc(Cl)c(C(=O)OCc3ccccc3Cl)c2)o1`, the inhibition entry in assay [1] was “inactive”. For the same compound, in assay [2], the result was Active. As for `CC1=NN(c2cccc(C(=O)O)c2)C(=O)/C1=C\c1ccc(-c2ccc(Cl)c(C(=O)NCc3ccc(F)cc3)c2)o1`, the result in assay [2] was inactive.

For orientation: IC50 means the concentration that inhibits the measured activity by half. `CCOC(=O)c1cccc(N2N=C(C)/C(=C/c3ccc(-c4ccc(Cl)c(C(=O)NCc5ccc(F)cc5)c4)o3)C2=O)c1`: the half-inhibitory concentration (IC50) in assay [3] is greater than 25 µM. In the case of `CC1=NN(c2cccc(C(=O)O)c2)C(=O)/C1=C\c1ccc(-c2ccc(Cl)c(C(=O)NCC3CC3)c2)o1`, in assay [2], the result was inactive. Turning to `CC1=NN(c2ccc(Cl)c(C(=O)O)c2)C(=O)/C1=C\c1ccc(-c2ccc(Cl)c(C(=O)OCc3ccccc3)c2)o1`, in assay [1], the inhibition result was “inactive”. Also, the outcome in assay [2] was Active. In the case of `CC1=NN(c2cccc(C(=O)O)c2)C(=O)/C1=C\c1ccc(-c2ccc(C(=O)NCC3CC3)cc2)o1`, the IC50 in assay [3] was greater than 50 µM. Regarding `CC1=NN(c2ccc(C(=O)O)cc2)C(=O)/C1=C\c1ccc(-c2ccc(C(=O)NCc3ccc(F)cc3)cc2)o1`, the outcome in assay [2] was inactive. On to `CC1=NN(c2ccc(C(=O)O)cc2)C(=O)/C1=C\c1ccc(-c2ccc(Cl)c(C(=O)NCc3ccc(F)cc3)c2)o1`, for which the inhibition entry in assay [1] is “inactive”. In addition, the result in assay [2] was inactive. Consider `CC1=NN(c2ccc(C(=O)O)cc2)C(=O)/C1=C\c1ccc(-c2ccc(Cl)c(C(=O)NCC3CC3)c2)o1`, for which the inhibition entry in assay [1] was “inactive”. The outcome in assay [2] was inactive. As to `CC1=NN(c2cccc(C(=O)O)c2)C(=O)/C1=C\c1ccc(-c2ccc(C(=O)NCc3ccc(F)cc3)cc2)o1`, in assay [3], the IC50 was greater than 50 µM.

Turning to `CC1=NN(c2cccc(C(=O)NCC3CC3)c2)C(=O)/C1=C\c1ccc(-c2ccc(Cl)c(C(=O)NCC3CC3)c2)o1`, the IC50 in assay [3] was greater than 50 µM.
